Results published in patent publication US9187446B2, “Antibacterial agents: sidechainfluorinated myxopyronin derivatives” (RUTGERS, THE STATE UNIVERSITY OF NEW JERSEY, priority 2012, dated 2015).
Converted amounts (≈) assume the structure as drawn. Where two headings read alike, the source gives them in different places.

Assays:
[1] = molecular target: E. coli RNA polymerase σ^70 holoenzyme (Escherichia coli, UniProt P0A8T7+P0A8V2); test: Fluorescence-detected inhibition of Escherichia coli RNA polymerase; assay type: biochemical; settings: read-out: IC50 E. coli RNAP
Description: (§1) Fluorescence-detected RNA polymerase assays with E. coli RNA polymerase were performed by a modification of the procedure of Kuhlman et al., 2004 [Kuhlman, P., Duff, H. & Galant, A. (2004) A fluorescence-based assay for multisubunit DNA-dependent RNA polymerases. Anal. Biochem. 324, 183-190]. Reaction mixtures contained (20 μl): 0-100 nM test compound, 75 nM E. coli RNA polymerase σ^70 holoenzyme, 20 nM 384 bp DNA fragment containing the bacteriophage T4 N25 promoter, 100 μM ATP, 100 μM GTP, 100 μM UTP, 100 μM CTP, 50 mM Tris-HCl, pH 8.0, 100 mM KCl, 10 mM MgCl2, 1 mM DTT, 10 μg/ml bovine serum albumin, and 5.5% glycerol. Reaction components other than DNA and NTPs were pre-incubated for 10 min at 37° C. Reactions were carried out by addition of DNA and incubation for 5 min at 37° C., followed by addition of NTPs and incubation for 60 min at 37° C. DNA was removed by addition of 1 μl 5 mM CaCl2 and 2 U DNaseI (Ambion, Inc.), followed by incubation for 90 min at 37° C. RNA was quantified by addition of 100 μl RiboGreen RNA Quantitation Reagent (Invitrogen, Inc.; 1:500 dilution in Tris-HCl, pH 8.0, 1 mM EDTA), followed by incubation for 10 min at 25° C., followed by measurement of fluorescence intensity [excitation wavelength=485 nm and emission wavelength=535 nm; QuantaMaster QM1 spectrofluorometer (PTI, Inc.)]. IC50 is defined as the concentration of inhibitor resulting in 50% inhibition of RNA polymerase activity.

[2] = system: Enterococcus faecalis ATCC strain 19433; test: MIC, spiral gradient endpoint assay, E. faecalis; settings: for MIC: Enterococcus faecalis, ATCC19433, 16 h, read-out: MIC E. faecalis 19433
[3] = molecular target: S. aureus RNA polymerase core enzyme, S. aureus σ^A (Staphylococcus aureus, UniProt P47768+Q2G0N5); test: Fluorescence-detected inhibition of Staphylococcus aureus RNA polymerase; assay type: biochemical
Description: as §1
(§2) Fluorescence-detected RNA polymerase assays with S. aureus RNA polymerase were performed as in Example 17.1, using reaction mixtures containing (20 μl): 0-100 nM test compound, 75 nM S. aureus RNA polymerase core enzyme, 300 nM S. aureus σ^A, 20 nM 384 bp DNA fragment containing the bacteriophage T4 N25 promoter, 100 μM ATP, 100 μM GTP, 100 μM UTP, 100 μM CTP, 40 mM Tris-HCl, pH 8.0, 80 mM NaCl, 5 mM MgCl2, 2.5 mM DTT, and 12.7% glycerol. IC50 is defined as the concentration of inhibitor resulting in 50% inhibition of RNA polymerase activity.

[4] = molecular target: M. tuberculosis RNA polymerase core enzyme, M. tuberculosis σ^A (Mycobacterium tuberculosis, UniProt P9WGY7+P9WGY9); test: Fluorescence-detected inhibition of Mycobacterium tuberculosis RNA polymerase; assay type: biochemical
Description: as §1
as §2, with “assays with M. tuberculosis RNA polymerase” for “assays with S. aureus RNA polymerase”, “75 nM M. tuberculosis RNA polymerase” for “75 nM S. aureus RNA polymerase”, “300 nM M. tuberculosis σ^A, 20” for “300 nM S. aureus σ^A, 20”, “ATP, […], 100” for “ATP, 100 μM GTP, 100”

[5] = system: Escherichia coli D212f2tolC; settings: MIC in presence of 10% mouse serum divided by MIC in absence of 10% mouse serum
[6] = system: Burkholderia mallei strain CHN7; test: microbe, parasite or virus in culture; assay type: cell-based
[7] = system: Burkholderia pseudomallei strain Human/Blood/OH/US/1994; test: microbe, parasite or virus in culture; assay type: cell-based
[8] = system: Francisella tularensis strain SCHU4; test: microbe, parasite or virus in culture; assay type: cell-based
[9] = system: Brucella melitensis strain 16M; test: microbe, parasite or virus in culture; assay type: cell-based
[10] = system: Bacillus anthracis strain Vollum 1 b; test: microbe, parasite or virus in culture; assay type: cell-based
[11] = not given; remark: listed apart in the source
[12] = physchem; settings: pH 7.4
[13] = Metabolic stability in the presence of human liver microsomes
[14] = read-out: IC50 M. tuberculosis RNAP

M. tuberculosis RNA polymerase core enzyme, M. tuberculosis σ^A, sequence (P9WGY7 whole entry): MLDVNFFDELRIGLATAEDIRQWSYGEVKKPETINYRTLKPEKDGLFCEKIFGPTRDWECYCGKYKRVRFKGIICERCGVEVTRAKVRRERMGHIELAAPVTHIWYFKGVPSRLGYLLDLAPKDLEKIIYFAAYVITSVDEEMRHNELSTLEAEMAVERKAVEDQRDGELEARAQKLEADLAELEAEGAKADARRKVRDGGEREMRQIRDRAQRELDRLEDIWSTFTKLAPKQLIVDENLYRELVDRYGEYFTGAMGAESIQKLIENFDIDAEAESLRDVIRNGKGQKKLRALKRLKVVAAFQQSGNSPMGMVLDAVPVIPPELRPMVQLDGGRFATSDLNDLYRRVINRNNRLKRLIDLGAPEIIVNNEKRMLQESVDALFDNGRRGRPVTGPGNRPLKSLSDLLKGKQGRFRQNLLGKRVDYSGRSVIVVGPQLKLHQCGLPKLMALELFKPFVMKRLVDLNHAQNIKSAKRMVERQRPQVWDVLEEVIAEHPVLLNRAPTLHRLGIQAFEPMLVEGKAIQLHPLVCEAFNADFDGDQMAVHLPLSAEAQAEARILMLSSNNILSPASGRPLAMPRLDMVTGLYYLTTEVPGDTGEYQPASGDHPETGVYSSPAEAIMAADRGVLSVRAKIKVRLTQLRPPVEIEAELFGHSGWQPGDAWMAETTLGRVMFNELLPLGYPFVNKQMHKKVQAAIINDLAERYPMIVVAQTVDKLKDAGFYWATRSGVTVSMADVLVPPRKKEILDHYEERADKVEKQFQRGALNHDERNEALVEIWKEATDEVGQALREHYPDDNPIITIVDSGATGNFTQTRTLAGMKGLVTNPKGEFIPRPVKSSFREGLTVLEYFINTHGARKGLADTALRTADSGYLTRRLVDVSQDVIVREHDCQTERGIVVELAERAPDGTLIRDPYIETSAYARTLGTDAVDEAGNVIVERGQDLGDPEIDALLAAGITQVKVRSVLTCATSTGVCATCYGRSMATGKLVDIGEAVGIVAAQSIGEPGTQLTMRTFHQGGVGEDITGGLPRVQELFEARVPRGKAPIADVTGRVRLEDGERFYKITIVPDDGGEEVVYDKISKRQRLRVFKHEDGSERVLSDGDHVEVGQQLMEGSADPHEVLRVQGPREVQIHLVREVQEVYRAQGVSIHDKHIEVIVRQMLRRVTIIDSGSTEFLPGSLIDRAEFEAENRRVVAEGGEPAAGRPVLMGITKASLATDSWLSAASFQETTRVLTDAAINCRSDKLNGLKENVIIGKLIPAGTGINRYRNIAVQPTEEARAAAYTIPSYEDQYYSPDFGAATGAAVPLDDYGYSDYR
M. tuberculosis RNA polymerase core enzyme, M. tuberculosis σ^A, sequence (P9WGZ1 whole entry, further chain): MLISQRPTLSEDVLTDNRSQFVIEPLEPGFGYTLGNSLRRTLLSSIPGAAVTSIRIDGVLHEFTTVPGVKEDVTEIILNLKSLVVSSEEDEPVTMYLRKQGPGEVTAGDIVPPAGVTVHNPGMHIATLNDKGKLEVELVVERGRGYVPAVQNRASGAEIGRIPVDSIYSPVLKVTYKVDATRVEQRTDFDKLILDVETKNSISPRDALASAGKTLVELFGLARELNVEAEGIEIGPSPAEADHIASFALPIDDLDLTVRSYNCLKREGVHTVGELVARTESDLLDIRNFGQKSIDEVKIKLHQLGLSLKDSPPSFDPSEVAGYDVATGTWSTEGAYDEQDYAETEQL
M. tuberculosis RNA polymerase core enzyme, M. tuberculosis σ^A, sequence (P9WGY9 whole entry): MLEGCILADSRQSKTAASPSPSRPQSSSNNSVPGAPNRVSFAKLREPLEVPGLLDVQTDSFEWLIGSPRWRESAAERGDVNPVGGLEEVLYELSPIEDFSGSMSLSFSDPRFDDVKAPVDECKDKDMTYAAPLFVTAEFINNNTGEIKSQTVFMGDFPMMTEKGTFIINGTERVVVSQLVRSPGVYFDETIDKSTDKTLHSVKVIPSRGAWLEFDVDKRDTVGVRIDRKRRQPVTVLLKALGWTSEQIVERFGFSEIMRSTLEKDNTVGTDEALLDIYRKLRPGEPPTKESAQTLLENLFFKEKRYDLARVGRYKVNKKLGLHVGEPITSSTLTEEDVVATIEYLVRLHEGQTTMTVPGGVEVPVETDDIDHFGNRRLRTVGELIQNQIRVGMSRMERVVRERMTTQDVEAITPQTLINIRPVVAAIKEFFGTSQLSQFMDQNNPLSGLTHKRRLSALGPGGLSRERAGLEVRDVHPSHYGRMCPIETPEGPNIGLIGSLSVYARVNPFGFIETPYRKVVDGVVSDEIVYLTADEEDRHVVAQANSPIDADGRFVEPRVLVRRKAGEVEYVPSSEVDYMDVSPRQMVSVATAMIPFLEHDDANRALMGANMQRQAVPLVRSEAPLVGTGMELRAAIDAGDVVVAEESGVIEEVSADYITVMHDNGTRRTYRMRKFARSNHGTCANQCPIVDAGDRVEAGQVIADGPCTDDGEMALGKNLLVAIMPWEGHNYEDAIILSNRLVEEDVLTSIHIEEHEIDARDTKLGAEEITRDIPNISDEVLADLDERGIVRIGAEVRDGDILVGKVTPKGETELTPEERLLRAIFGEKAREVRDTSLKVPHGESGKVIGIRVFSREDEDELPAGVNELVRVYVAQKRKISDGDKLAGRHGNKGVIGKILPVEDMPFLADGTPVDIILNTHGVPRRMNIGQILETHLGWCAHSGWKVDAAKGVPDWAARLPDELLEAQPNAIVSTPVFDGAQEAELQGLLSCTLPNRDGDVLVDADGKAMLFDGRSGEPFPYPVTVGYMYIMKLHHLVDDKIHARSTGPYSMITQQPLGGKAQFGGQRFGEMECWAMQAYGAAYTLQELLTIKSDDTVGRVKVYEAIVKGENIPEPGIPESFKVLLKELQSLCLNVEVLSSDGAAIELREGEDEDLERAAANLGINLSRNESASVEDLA
M. tuberculosis RNA polymerase core enzyme, M. tuberculosis σ^A, sequence (P9WGY5 whole entry, further chain): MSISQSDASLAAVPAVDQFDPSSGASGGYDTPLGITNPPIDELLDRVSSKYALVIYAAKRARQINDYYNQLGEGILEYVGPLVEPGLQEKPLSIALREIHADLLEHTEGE
M. tuberculosis RNA polymerase core enzyme, M. tuberculosis σ^A, sequence (P9WGI1 whole entry, further chain): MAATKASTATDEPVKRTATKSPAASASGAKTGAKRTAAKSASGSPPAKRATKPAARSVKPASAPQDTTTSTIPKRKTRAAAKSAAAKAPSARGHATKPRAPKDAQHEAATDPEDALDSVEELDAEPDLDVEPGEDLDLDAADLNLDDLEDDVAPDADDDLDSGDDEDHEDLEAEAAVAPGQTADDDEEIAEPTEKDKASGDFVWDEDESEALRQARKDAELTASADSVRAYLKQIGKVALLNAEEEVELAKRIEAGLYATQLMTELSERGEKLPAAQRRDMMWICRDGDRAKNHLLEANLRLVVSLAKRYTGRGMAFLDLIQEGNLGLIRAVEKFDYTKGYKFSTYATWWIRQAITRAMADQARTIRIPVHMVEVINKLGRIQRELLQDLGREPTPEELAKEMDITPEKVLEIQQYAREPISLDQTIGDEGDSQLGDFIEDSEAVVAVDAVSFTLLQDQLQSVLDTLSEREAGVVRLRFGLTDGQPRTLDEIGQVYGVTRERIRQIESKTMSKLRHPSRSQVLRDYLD

For `COC(=O)N/C=C/CCC(C)c1cc(O)c(C(=O)/C(C)=C/C=C(\C)CCC(F)(F)F)c(=O)o1` (stereo not drawn) [compound 5], the IC50 [1] was 4 nM, the MIC [2] was over 40 µg/mL and the IC50 ([3]; read-out: IC50 S. aureus RNAP) was 100 nM. The IC50 [4, 14] was 100 nM and the serum shift [5] was 8.

Molecule `COC(=O)N/C=C/CCC(C)c1cc(O)c(C(=O)/C(C)=C/C=C(\C)CCCCC(F)(F)F)c(=O)o1` (stereo not drawn) [compound 3, Methyl ((E)-5-(4-hydroxy-2-oxo-3-((2E,4E)-10,10,10-trifluoro-2,5-dimethyldeca-2,4-dienoyl)-2H-pyran-6-yl)hex-1-en-1-yl)carbamate] has an IC50 [1] of 10 nM, an MIC [2] of 10 µg/mL (≈ 20 µM) and an IC50 [3] of 40 nM. The IC50 [4] was 200 nM and the serum shift [5] was 16.

In the case of `CCCC/C(C)=C/C=C(\C)C(=O)c1c(O)cc([C@H](C)CC/C=C/NC(=O)OC)oc1=O` (racemic) [Myx B, (±)myxopyronin B, reference compound], the IC50 [1] is reported as 10 nM, the “MIC B. mallei CHN7” value ([6]; broth microdilution) is reported as 6 µg/mL (≈ 13.9 µM) and the “MIC E. faecalis 19433” value ([2]; 16 h at 37° C., Mueller-Hinton II agar) is reported as 20 µg/mL (≈ 46.3 µM). The “MIC B. pseudomallei Human/Blood/OH/US/1994” value ([7]; broth microdilution) was 30 µg/mL (≈ 69.5 µM), the “MIC F. tularensis SCHU4” value ([8]; broth microdilution) was 2 µg/mL (≈ 4.63 µM) and the IC50 ([3]; read-out: IC50 S. aureus RNAP) was 70 nM. For the same molecule, the IC50 [4, 14] was 100 nM, the serum shift [5] was 16 and the “half-life human liver microsomes” value was 3 min. The “MIC B. melitensis 16M” value ([9]; broth microdilution) was 3 µg/mL (≈ 6.95 µM), the “MIC B. anthracis Vollum1b” value ([10]; broth microdilution) was 6 µg/mL (≈ 13.9 µM) and the “logD (pH 7.4)” value [11] was 1.8.

`COC(=O)N/C=C/CCCc1cc(O)c(C(=O)/C(C)=C/C=C(\C)CCCC(F)(F)F)c(=O)o1` [compound 9, Methyl ((E)-5-(4-hydroxy-2-oxo-3-((2E,4E)-9,9,9-trifluoro-2,5-dimethylnona-2,4-dienoyl)-2H-pyran-6-yl)pent-1-en-1-yl)carbamate] showed an IC50 [1] of 5 nM, an MIC [2] of 10 µg/mL (≈ 21.2 µM) and an IC50 [4, 14] of 60 nM. It also gave a serum shift [5] of 8.

With `COC(=O)N/C=C/CCCc1cc(O)c(C(=O)/C(C)=C/C=C(\C)CCC(F)(F)F)c(=O)o1` [compound 11, Methyl ((E)-5-(4-hydroxy-2-oxo-3-((2E,4E)-8,8,8-trifluoro-2,5-dimethylocta-2,4-dienoyl)-2H-pyran-6-yl)pent-1-en-1-yl)carbamate] the IC50 [1] was 20 nM, the MIC [2] was over 40 µg/mL and the serum shift [5] was 4.

Work on `COC(=O)N/C=C/CCC(C)c1cc(O)c(C(=O)/C(C)=C/C=C(\C)CCCC(F)(F)F)c(=O)o1` (stereo not drawn) [compound 1, Methyl ((E)-5-(4-hydroxy-2-oxo-3-((2E,4E)-9,9,9-trifluoro-2,5-dimethylnona-2,4-dienoyl)-2H-pyran-6-yl)hex-1-en-1-yl)carbamate] yielded an IC50 [1] of 4 nM, an MIC ([6]; Burkholderia mallei, CHN7, read-out: MIC B. mallei CHN7) of 10 µg/mL (≈ 20.6 µM) and an MIC [2] of 9 µg/mL (≈ 18.5 µM). It also gave an MIC ([7]; Burkholderia pseudomallei, read-out: MIC B. pseudomallei Human/Blood/OH/US/1994) of 50 µg/mL (≈ 103 µM), a logD [12] of 1.4 and an MIC ([8]; Francisella tularensis, SCHU4, read-out: MIC F. tularensis SCHU4) of 3 µg/mL (≈ 6.18 µM). The IC50 ([3]; read-out: IC50 S. aureus RNAP) was 10 nM, the IC50 [4, 14] was 30 nM and the serum shift [5] was 8. The MIC ([9]; Brucella melitensis, 16M, read-out: MIC B. melitensis 16M) was 6 µg/mL (≈ 12.4 µM), the MIC ([10]; Bacillus anthracis, VOLLUM1B, read-out: MIC B. anthracis Vollum1b) was 6 µg/mL (≈ 12.4 µM) and the “higher metabolic stability than (±)myxopyronin B” value ([13]; human liver microsomes, relative to Myx B) was 4 to 5 times. It also gave a half-life ([13]; human, liver microsomes) of 14 min.
